Experimental data as given in article PMC4125376 (Drug Target Insights, 2014).

Molecular target: Babesia microti lactate dehydrogenase (BmLDH) (Babesia microti, UniProt I7J7V6)
Assay: NADH formation at […] nm, […] NAD+ and […] lactate, non-linear regression
Type: biochemical

Chain of Babesia microti lactate dehydrogenase (BmLDH) (I7J7V6 1-332): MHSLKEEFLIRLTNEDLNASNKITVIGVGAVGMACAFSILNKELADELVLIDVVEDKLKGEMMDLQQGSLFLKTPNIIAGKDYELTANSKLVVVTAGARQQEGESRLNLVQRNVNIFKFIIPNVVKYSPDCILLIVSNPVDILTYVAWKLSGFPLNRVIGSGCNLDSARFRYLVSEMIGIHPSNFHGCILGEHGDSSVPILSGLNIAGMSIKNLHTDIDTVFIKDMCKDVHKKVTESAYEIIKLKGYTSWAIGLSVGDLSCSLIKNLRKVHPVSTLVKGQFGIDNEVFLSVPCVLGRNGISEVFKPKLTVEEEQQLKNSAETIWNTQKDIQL

Q: `Cc1cc2c(C(C)C)c(O)c(O)c(C=O)c2c(O)c1-c1c(C)cc2c(C(C)C)c(O)c(O)c(C=O)c2c1O` [gossypol] was tested. Which IC50 did it give?
A: Its IC50 is 345 ± 1.11 nM.
